Experimental data as given in ChEMBL document CHEMBL1201862, “PubChem BioAssay data set” (2004).
Activity calls are given as the source filed them.

Experiments:
Assay type in all cases: functional
[1] = target: T1, Apoptotic protease-activating factor 1 (Homo sapiens, UniProt O14727)
T1 sequence (O14727 whole entry): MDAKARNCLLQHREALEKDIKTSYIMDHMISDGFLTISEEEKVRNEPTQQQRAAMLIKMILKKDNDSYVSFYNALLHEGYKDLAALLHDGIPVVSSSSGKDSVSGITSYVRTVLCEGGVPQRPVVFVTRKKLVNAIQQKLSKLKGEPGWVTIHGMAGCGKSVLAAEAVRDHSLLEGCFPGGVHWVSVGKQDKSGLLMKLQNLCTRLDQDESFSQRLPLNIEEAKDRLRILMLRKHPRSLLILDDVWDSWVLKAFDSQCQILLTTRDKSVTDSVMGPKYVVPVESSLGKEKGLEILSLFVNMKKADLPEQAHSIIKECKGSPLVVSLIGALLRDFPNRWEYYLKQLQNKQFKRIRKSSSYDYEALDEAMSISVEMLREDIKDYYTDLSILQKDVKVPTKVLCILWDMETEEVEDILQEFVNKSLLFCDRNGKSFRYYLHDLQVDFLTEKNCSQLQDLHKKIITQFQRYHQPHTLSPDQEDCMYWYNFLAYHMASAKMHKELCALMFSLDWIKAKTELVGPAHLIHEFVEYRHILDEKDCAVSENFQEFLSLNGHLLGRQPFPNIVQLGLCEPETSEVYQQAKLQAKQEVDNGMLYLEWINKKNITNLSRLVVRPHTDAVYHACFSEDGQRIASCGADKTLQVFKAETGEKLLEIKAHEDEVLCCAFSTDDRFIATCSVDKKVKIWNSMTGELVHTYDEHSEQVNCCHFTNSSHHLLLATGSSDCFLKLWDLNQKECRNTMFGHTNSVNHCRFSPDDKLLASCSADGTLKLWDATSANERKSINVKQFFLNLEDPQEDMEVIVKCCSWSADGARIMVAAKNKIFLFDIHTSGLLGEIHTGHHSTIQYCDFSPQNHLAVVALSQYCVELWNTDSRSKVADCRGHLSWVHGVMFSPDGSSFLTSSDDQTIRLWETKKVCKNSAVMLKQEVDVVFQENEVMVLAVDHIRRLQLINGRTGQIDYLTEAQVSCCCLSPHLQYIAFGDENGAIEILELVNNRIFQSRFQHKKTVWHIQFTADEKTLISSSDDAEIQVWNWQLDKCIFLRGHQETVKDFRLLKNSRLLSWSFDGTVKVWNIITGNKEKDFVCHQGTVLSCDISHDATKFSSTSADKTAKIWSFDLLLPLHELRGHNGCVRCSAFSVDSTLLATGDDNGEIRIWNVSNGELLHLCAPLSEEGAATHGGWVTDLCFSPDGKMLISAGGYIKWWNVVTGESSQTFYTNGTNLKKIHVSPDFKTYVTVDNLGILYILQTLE

[2] = target: T2, Replicative DNA helicase DnaB (Mycobacterium tuberculosis, UniProt P9WMR3); assay: DnaB intein splicing inhibitors, dose response, biochemical, cell-free fluorescence (AID 449749)
T2 sequence (P9WMR3 whole entry): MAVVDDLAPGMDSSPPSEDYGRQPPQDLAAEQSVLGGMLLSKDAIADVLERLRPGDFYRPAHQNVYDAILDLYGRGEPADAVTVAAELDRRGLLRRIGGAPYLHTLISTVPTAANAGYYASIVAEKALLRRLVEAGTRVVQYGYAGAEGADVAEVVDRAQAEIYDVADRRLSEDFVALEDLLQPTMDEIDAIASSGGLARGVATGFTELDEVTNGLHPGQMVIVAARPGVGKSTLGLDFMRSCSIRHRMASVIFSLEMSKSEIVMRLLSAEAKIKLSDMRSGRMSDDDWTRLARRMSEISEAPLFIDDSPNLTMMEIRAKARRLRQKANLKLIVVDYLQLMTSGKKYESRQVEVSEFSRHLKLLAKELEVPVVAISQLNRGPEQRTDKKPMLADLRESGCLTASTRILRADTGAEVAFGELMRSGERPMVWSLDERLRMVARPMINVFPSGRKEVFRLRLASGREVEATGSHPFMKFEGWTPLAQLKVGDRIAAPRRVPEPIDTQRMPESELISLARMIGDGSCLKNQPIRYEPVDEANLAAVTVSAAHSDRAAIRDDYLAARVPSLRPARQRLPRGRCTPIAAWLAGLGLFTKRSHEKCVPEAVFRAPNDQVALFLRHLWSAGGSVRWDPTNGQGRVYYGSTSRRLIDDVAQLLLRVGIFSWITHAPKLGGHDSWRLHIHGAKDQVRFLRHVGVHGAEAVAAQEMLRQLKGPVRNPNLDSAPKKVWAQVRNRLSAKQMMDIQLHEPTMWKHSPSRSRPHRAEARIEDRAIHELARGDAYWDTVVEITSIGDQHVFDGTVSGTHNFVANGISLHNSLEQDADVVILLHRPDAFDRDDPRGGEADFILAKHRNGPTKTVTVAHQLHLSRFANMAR

[3] = target: T3, Protein RecA (Mycobacterium tuberculosis, UniProt P9WHJ3); assay: Fluorescence Cell-Free Homogeneous Dose Retest to Identify Inhibitors of RecA-Intein Splicing Activity. [Related pubchem assays (depositor defined):AID2097, AID2223, AID489010, AID492950]
T3 sequence (P9WHJ3 whole entry): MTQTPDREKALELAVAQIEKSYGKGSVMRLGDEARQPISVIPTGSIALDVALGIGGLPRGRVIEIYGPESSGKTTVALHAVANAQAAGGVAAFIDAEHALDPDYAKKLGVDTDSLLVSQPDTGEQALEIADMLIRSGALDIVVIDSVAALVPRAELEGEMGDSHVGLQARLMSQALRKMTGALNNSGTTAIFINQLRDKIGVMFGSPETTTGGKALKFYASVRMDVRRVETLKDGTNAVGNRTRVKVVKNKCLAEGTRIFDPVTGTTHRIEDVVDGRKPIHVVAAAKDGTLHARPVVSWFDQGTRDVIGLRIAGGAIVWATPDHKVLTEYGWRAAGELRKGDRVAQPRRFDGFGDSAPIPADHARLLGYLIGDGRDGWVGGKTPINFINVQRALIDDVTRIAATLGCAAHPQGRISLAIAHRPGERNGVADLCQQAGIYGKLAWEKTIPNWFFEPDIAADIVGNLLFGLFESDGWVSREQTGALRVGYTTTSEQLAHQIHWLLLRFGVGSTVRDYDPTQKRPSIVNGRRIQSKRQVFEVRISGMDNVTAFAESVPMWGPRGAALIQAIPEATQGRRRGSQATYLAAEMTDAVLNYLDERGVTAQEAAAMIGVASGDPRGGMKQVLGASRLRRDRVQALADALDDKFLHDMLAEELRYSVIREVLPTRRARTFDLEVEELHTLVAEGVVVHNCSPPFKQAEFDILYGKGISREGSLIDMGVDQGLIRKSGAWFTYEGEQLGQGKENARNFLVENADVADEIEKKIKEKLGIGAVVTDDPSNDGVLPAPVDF

Row | Structure (SMILES) | IC50 [1] | AC50 [2] | EC50 [3]
1 | CCCCCCCCCCOC(=O)Cn1c(COc2cccc(OC)c2)[n+](C)c2ccccc21 | 10200 nM (active) | 4320 nM (active) | 9700 nM (active)
2 | COc1cc(OC)c(NC2=CC(=O)C(=O)c3ccccc32)cc1Cl | 2120 nM (active) |  | 
3 | CCc1ccc(S(=O)(=O)/N=C2\C=C(Nc3cccc(C(=O)O)c3)C(=O)c3ccccc32)cc1 | 7070 nM (active) | 276 nM (active) | 216 nM (active)
4 | COc1cc2c(cc1OC)-c1c(OC)c(OC)cc3c1C(C2)N(C)CC3 (centres undefined) |  | 550 nM (active) | 614 nM (active)
